This note sets out measurements from ChEMBL document CHEMBL4425137, “Selective 5-HT2C receptor agonists: Design and synthesis of pyridazine-fused azepines” (Bioorg Med Chem Lett, 2016).

A value given as a limit tells only on which side of the number the result lay.

As a reminder, the Emax is the size of the effect at its maximum, as opposed to the concentration needed. Broadly, the microsomal CLint is a measure of how fast metabolising enzymes remove a compound, apart from limits set by blood flow. A low value points to slow turnover. Usually logD stands for the decadic logarithm of the distribution of all forms, ionised or not, between an organic phase and buffer at a given pH. The EC50 is the concentration that produces a half-maximal response. By efflux ratio is commonly meant the permeability from basolateral to apical divided by that in the opposite direction, in the common usage. As usually defined, the Ki is the equilibrium dissociation constant of an inhibitor or competing ligand from its target. A low value points to a stronger hold on the target. As usually defined, the Papp is a coefficient for how fast a substance crosses the barrier.

For data set [1] the following is noted: human, microsomes.
Description: (§1) Intrinsic clearance in human liver microsomes
Another data set addresses 5-HT2B receptor (Homo sapiens, UniProt P41595). Description: in vitro.
Data set [2] is described as follows: in vitro. As to conditions: human, liver microsomes. In general terms: Microsomes from liver hold many membrane-bound enzymes, among them those of drug oxidation.
Description: as §1
Another data set can be described thus: physchem. To be noted: octanol/water.
In data set [3] the target is T1, 5-hydroxytryptamine receptor 2C (Homo sapiens, UniProt P28335).
T1 sequence (P28335 whole entry): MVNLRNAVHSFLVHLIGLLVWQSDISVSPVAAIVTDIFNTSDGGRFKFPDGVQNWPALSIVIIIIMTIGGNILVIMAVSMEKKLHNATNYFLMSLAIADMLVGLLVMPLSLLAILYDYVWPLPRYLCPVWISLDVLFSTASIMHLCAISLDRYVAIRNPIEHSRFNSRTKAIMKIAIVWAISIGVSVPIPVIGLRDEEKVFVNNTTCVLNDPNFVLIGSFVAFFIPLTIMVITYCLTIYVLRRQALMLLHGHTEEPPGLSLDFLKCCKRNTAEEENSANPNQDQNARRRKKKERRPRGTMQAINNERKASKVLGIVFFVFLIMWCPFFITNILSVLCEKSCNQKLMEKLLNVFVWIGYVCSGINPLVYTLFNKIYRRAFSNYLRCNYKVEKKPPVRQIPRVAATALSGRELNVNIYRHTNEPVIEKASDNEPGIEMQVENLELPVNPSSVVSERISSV
Description: Agonist activity at recombinant human 5-HT2C receptor transfected in CHOK1 cells assessed as calcium mobilization by FLIPR assay

For the next data set, the system named is MDR1. The data set can be described thus: in vitro. As to conditions: dog, MDCK-MDR1, Ratio.
Data set [4] concerns the target T1, 5-hydroxytryptamine receptor 2C. Description: biochemical.
Description: Displacement of [3H]-mesulergine from recombinant human 5-HT2C receptor transfected in Swiss mouse 3T3 cells after 150 mins by scintillation proximity assay
The nature of data set [5]: in vitro. As to conditions: dog, MDCK, permeability.
Description: Permeability in RRCK cells
For data set [6], the target named is T2, 5-hydroxytryptamine receptor 2B (Homo sapiens, UniProt P41595). Description: Agonist activity at recombinant human 5-HT2B receptor transfected in CHOK1 cells assessed as calcium mobilization by FLIPR assay. Type of data set: cell-based.
T2 sequence (P41595 whole entry): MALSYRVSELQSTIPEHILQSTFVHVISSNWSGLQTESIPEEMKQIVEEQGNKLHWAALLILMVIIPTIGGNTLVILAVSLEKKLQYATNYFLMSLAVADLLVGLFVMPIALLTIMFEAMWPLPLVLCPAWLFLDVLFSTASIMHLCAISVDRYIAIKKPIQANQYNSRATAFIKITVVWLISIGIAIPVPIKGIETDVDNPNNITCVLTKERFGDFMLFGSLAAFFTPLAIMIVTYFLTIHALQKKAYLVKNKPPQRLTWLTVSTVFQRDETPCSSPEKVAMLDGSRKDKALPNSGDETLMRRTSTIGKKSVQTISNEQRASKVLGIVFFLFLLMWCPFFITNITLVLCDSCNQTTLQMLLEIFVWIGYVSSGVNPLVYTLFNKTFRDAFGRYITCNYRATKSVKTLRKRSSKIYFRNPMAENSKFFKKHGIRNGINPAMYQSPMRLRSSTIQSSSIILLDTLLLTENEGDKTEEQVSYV
The conditions of data set [7]: dog, mdckii-le.
Description: Permeability in RRCK cells
The target of data set [8] is T2, 5-hydroxytryptamine receptor 2B. As to conditions: 10 µM.
Description: (§2) Agonist activity at recombinant human 5-HT2B receptor transfected in CHOK1 cells assessed as calcium mobilization at 10 uM by FLIPR assay

Chain of 5-HT2B receptor (P41595 whole entry): as above
Description for 5-HT2B receptor: as §2
Description for MDR1: Efflux ratio of permeability from basolateral to apical side over apical to basolateral side in MDCK cells expressing MDR1
Description for physchem: Lipophilicity, log D of the compound

In data set [1], `c1ccc(Cc2ncc3c(n2)CCNCC3)cc1` returned a CLH of less than 8000 µL/min/mg.

`Fc1ccc(Cc2cc3c(nn2)CCNCC3)cc1` gave an Emax at 10 µM on 5-HT2B receptor of 64%. For the same compound, the microsomal CLint in “in vitro [2]” was less than 7 µL/min/mg. The logD in “physchem” amounted to 0.2. The same compound came in with an EC50 in data set [3] of more than 10 µM. The efflux ratio in the data set with MDR1 was found to be 1.2. Further, in data set [4], affinity was put at a Ki of 0.45 µM. In the data set “in vitro [5]”, this compound gave a Papp of 14 ×10⁻⁶ cm/s.

At 5-HT2B receptor, `COc1ccccc1Cc1cc2c(nn1)CCNCC2` gave an Emax at 10 µM of 40%. In the data set “in vitro [2]”, this compound registered a microsomal CLint of 9 µL/min/mg. Also, the logD in the data set “physchem” amounted to 0.1. The EC50 in data set [3] is more than 10 µM. In addition, the efflux ratio in the data set with MDR1 turned out to be 1.9. The compound also had a Ki in data set [4] of 0.55 µM. In “in vitro [5]”, the Papp came to 16 ×10⁻⁶ cm/s.

For the compound `c1ccc(Cc2cc3c(nn2)CCNCC3)cc1`, at 5-HT2B receptor, the Emax at 10 µM worked out at 29%. The same compound showed an intrinsic metabolic clearance (microsomal CLint) in “in vitro [2]” of less than 7 µL/min/mg. In “physchem”, this compound showed a logD of 0. In data set [3], this compound displayed an EC50 of 0.13 µM. Moreover, the efflux ratio in the data set with MDR1 was found to be 1. Further, in [4], the Ki worked out at 0.08 µM. For the same compound, the Papp in the data set “in vitro [5]” came to 14 ×10⁻⁶ cm/s.

Compound `Clc1ccccc1Cc1cc2c(nn1)CCNCC2` returned an Emax at 10 µM at 5-HT2B receptor of 41%. In the data set “in vitro [2]”, this compound displayed a microsomal CLint of less than 7 µL/min/mg. This compound came in with a log distribution coefficient (logD) in “physchem” of 0.7. Further, the EC50 in data set [3] turned out to be 0.31 µM; in data set [6], 0.8 µM. In addition, the efflux ratio in the data set on MDR1 came to 1.1. The same compound came in with an inhibition constant Ki in data set [4] of 0.2 µM. In the data set “in vitro [5]”, this compound yielded a Papp of 15 ×10⁻⁶ cm/s.

With `c1ccc(Cc2nnc3n2CCNCC3)cc1`, on 5-HT2B receptor, the Emax at 10 µM came out at 0%. Moreover, the logD in “physchem” is -0.3. In addition, the EC50 in [3] was more than 10 µM. Also, the efflux ratio in the data set with MDR1 was determined as 1.3. Moreover, the Ki in data set [4] is more than 10 µM. In [1], this compound gave a CLH of less than 8000 µL/min/mg. For the same compound, in the data set “in vitro [5]”, the Papp turned out to be 2 ×10⁻⁶ cm/s.

Regarding `Cc1c(Cc2ccccc2)nnc2c1CCNCC2`, the microsomal CLint in the data set “in vitro [2]” is less than 8 µL/min/mg. In [3], the EC50 worked out at 0.22 µM. Further, in the data set with MDR1, the efflux ratio was determined as 1.9. The same compound showed a Ki in [4] of 0.52 µM. Also, the Papp in “in vitro [5]” turned out to be 14 ×10⁻⁶ cm/s.

On 5-HT2B receptor, `FC(F)(F)c1cccc(Cc2cc3c(nn2)CCNCC3)c1` returned an Emax at 10 µM of 57%. The same compound showed a microsomal CLint in the data set “in vitro [2]” of less than 7 µL/min/mg. The logD in “physchem” turned out to be 0.9. Besides, the figures for the EC50 in data set [3] and in data set [6] were 0.75 µM and 0.45 µM, respectively. Moreover, the efflux ratio with MDR1 is 1.7. The compound further gave a Ki in [4] of 0.25 µM. Also, the Papp in “in vitro [5]” turned out to be 13 ×10⁻⁶ cm/s.

Regarding `O=c1[nH]c2c(nc1Cc1ccccc1)CCNCC2`, on 5-HT2B receptor, the Emax at 10 µM was found to be 24%. In the data set “physchem”, this compound registered a logD of -0.1. In [3], this compound showed an EC50 of 0.07 µM. The efflux ratio in the data set on MDR1 came out at 3. For the same compound, in data set [4], the affinity, expressed as Ki, was 0.11 µM. Besides, the CLH in data set [1] is less than 8000 µL/min/mg.

On 5-HT2B receptor, `Clc1ccc(Cc2cc3c(nn2)CCNCC3)cc1` showed an Emax at 10 µM of 63%. Also, the microsomal CLint in “in vitro [2]” was less than 7 µL/min/mg. The compound also registered a logD in the data set “physchem” of 0.8. The EC50 in data set [3] turned out to be 0.31 µM; in data set [6] it was 0.41 µM. The efflux ratio in the data set with MDR1 stood at 1.3. The Ki in data set [4] was 0.12 µM. The Papp in “in vitro [5]” stood at 13 ×10⁻⁶ cm/s.

For `O=c1cc2c(nn1Cc1ccccc1)CCNCC2`, the Emax at 10 µM at 5-HT2B receptor worked out at 48%. In “physchem”, this compound returned a logD of 0.3. This compound registered an EC50 in data set [3] of 0.03 µM. Moreover, in the data set with MDR1, the efflux ratio amounted to 1. This compound registered a Ki in data set [4] of 0.01 µM. Besides, the CLH in data set [1] is less than 7000 µL/min/mg. In the data set “in vitro [5]”, this compound showed a Papp of 13 ×10⁻⁶ cm/s.

In turn, `c1ccc(Cn2cc3c(n2)CCNCC3)cc1` yielded an Emax at 10 µM on 5-HT2B receptor of 3%. The same compound yielded a logD in “physchem” of 0.1. In addition, in the data set with MDR1, the efflux ratio is 1. Besides, the Ki in data set [4] is 2.7 µM. In addition, the CLH in [1] is less than 7000 µL/min/mg. The Papp in “in vitro [5]” amounted to 13 ×10⁻⁶ cm/s.

Regarding `O=c1[nH]n(Cc2ccccc2)c2c1CCNCC2`, at 5-HT2B receptor, the Emax at 10 µM was 0%. Besides, in the data set “physchem”, the logD was -0.1. Also, the EC50 in data set [3] is more than 10 µM. Further, the efflux ratio in the data set with MDR1 was determined as 1.2. Also, in data set [1], the CLH is less than 7000 µL/min/mg. The compound also had a Papp in the data set “in vitro [5]” of less than 1 ×10⁻⁶ cm/s.

`O=c1c2c([nH]n1Cc1ccccc1)CCNCC2` registered an Emax at 10 µM on 5-HT2B receptor of 0%. Besides, in “physchem”, the logD was -0.5. The compound further displayed an EC50 in data set [3] of more than 10 µM. Further, the Papp in the data set “in vitro [5]” is less than 1 ×10⁻⁶ cm/s.

In the case of `CC(c1ccccc1)c1cc2c(nn1)CCNCC2` (stereo in doubt; 15g), the Emax at 10 µM at 5-HT2B receptor came out at 36%. The compound also came in with an intrinsic clearance (microsomal CLint) in “in vitro [2]” of less than 8 µL/min/mg. The same compound gave a logD in “physchem” of 0.4. In [3], this compound displayed an EC50 of 0.19 µM. Further, in the data set with MDR1, the efflux ratio was found to be 1.8. In addition, affinity in data set [4] was put at a Ki of 0.2 µM. This compound had a Papp in the data set “in vitro [5]” of 13 ×10⁻⁶ cm/s.

`CC(c1ccccc1)c1cc2c(nn1)CCNCC2` (stereo in doubt; 15h): in data set [7], the permeability was determined as 14 ×10⁻⁶ cm/s. In [8], this compound came in with an Emax of 55%. Further, the EC50 in data set [3] was determined as 0.11 µM. Moreover, the Ki in data set [4] turned out to be 0.17 µM.
